# Measured values published in ChEMBL document CHEMBL3046532, “QSAR analysis on PfPK7 inhibitors using HQSAR, CoMFA, and CoMSIA” (Med Chem Res, 2012).
# Target: T1, Putative uncharacterized protein pk7 (Plasmodium falciparum, UniProt O96214)
# T1 sequence (O96214 whole entry): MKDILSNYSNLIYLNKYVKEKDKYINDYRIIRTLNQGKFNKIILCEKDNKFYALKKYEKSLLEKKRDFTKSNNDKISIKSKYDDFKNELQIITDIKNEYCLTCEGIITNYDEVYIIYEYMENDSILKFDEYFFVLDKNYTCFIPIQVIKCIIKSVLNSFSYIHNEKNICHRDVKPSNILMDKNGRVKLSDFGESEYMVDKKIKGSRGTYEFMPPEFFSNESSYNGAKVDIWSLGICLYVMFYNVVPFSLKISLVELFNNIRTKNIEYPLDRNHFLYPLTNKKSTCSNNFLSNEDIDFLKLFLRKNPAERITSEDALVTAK
# Test: Inhibition of Plasmodium falciparum protein kinase 7
row,Structure (SMILES),IC50 [µM]
1,CN(Cc1ccc(F)nc1)c1ccc2ncc(-c3ccc(C(N)=O)cc3)n2n1,1.1
2,N#Cc1ccc(-c2cnc3ccc(N[C@H]4CCCNC4)nn23)cc1,2.1
3,CN(Cc1ccc(F)nc1)c1ccc2ncc(-c3ccc(C#N)cc3)n2n1,1.07
4,CN(Cc1ccc(F)nc1)c1ccc2ncc(-c3ccc(CNCO)cc3)n2n1,34
5,CN(Cc1ccc(F)nc1)c1ccc2ncc(-c3ccc(Cn4ccnc4)cc3)n2n1,56
6,CN(Cc1ccc(F)nc1)c1ccc2ncc(-c3ccc(CO)cc3)n2n1,21
7,CN(Cc1ccc(F)nc1)c1ccc2ncc(-c3ccc(N)cc3)n2n1,42
8,CN(Cc1ccc(F)nc1)c1ccc2ncc(-c3ccc(CN4CCC(O)CC4)cc3)n2n1,103
